Measured values reported in patent US20130137131A1, “System and Method of Producing Volatile Organic Compounds from Fungi” (priority 2010, published 2013).

System: Hypoxylon sp. CI-4
Assay: Response of Hypoxylon sp. CI-4 to epigenetic modifying agents
Type: cell-based
Settings: lower concentrations seemingly ineffective
From the text: The wild-type Hypoxylon sp. had previously been found as an endophyte in Persea indica growing in the Laurisilva, Tenerife, Spain (Tomsheck et al., 2010, Microb Ecol 60:903-914). The fungus, growing on potato dextrose agar (PDA), was hyphal tipped in order to obtain a genetically pure strain, CI-4. This strain was used for epigenetic modulation using a histone deacetylase inhibitor, suberoylanilide hydroxamic acid (SAHA) and a DNA methyltransferase inhibitor, 5-azacytidine (AZA) as the modulating compounds (Cichewicz, 2010, Nat Prod Rep 27:11-22). Stock solutions of these compounds were prepared in DMSO and sterile deionized water, respectively. The fungus was grown on PDA supplemented with different concentrations of the epigenetic modulators (1, 5, 10, 20, 30, 50 and 100 μM) for 15 days. The numerous variants resulting from concentrations of modulators producing the most notable cultural, biological and VOC changes were selected for future study. The strains studied here were CI-4 (wild-type), CI4-B (strain selected after a 15 day exposure of CI-4 to 50 μM SAHA, hyphal tipped, transferred to PDA and studied without subsequent exposure to SAHA), CI4-SAHA (strain CI-4 exposed to 50 μM SAHA in all studies), and CI4-AZA (strain CI-4 exposed to 100 μM AZA in all studies).
Successful attempts were made to acquire a response of Hypoxylon sp. […]

| Compound | Changes in the morphology and bioactivities of the cultures (growth of strain CI-4 on PD broth with 100 μM AZA) | Changes in the morphology and bioactivities of the cultures (growth of strain CI-4 on PD broth with 50 μM SAHA) |
| --- | --- | --- |
| Nc1ncn([C@@H]2O[C@H](CO)[C@@H](O)[C@H]2O)c(=O)n1 [AZA, 4-amino-1-(β-D-ribofuranosyl)-1,3,5-triazin-2(1H)-one] | the most striking changes in the morphology and bioactivities of the cultures | – |
| O=C(CCCCCCC(=O)Nc1ccccc1)NO [SAHA, N-hydroxy-N′-phenyl-octanediamide] | – | the most striking changes in the morphology and bioactivities of the cultures |
